# Tested on: CD3+ T-cells pre-isolated from human peripheral blood
# Test: Gene expression panel of CD3+ T-cells treated with dmPGE2 (Affymetrix U133 plus 2.0 GeneChip)
# Format: cell-based
# Conditions: 10 μM dmPGE2, 2 hours at 37° C.; genes ATF3, CREM, GEM, CXCL2, MMP9, PLAUR, AREG, BCL2A1, DUSP4, FOS, FOSL2, JUN, MYC, NR4A2, NR4A3, SOCS1, SOCS3, ULBP2; mean of 3 donors; FIG. 1
# Procedure: RNA was extracted from CD3+ T-cells pre-isolated from human peripheral blood (AllCells, Aiameda CA) (n=3 donors) post ex vivo treatment (2 hours at 37° C. in StemSpan-ACF (StemCell Technologies, Vancouver, Canada)) with 10 μM dmPGE2 (Fate therapeutics, San Diego, Calif.) or vehicle control (DMSO).
# Following cell treatments, levels mRNA were quantitated from PicoPure isolated mRNA (Life Technologies, Carlsbad, Calif.) using Affymetrix GeneChip technology. Affymetrix U133 plus 2.0 GeneChip hybridization of all samples was performed in accordance with the manufacturer's recommendations (Affymetrix, Santa Clara, Calif.), involving roughly 200 ng of total RNA and Message Amp II (Life Technologies, Carlsbad, Calif.) standard two round amplification protocols. Probe intensities were normalized according to a log scale robust multi-array analysis (RMA) method (Affymetrix Santa Clara, Calif.). A parametric paired t-test (Benjamini-Hochberg false discovery rate <0.05, adjusted p-value/q-value <0.05, and fold change > or <2 fold) detected probes with significant changes due to the treatment with dmPGE2 and dexamethasone.
# The probe intensities were converted into linear fold changes of relative expression levels of mRNA by comparison of dmPGE2 and dexamethasone treated CD3+ T-cells in comparison to the vehicle treated control samples. […]
compound,measurement,value
"CCCCC(C)(C)[C@H](O)/C=C/[C@H]1[C@H](O)CC(=O)[C@@H]1C/C=C\CCCC(=O)O [dmPGE2, 16,16-dimethyl PGE2]",statistically significant increase in expression (linear fold change of mRNA vs vehicle control),at least 2 fold

# Source: US20190119635A1, “MODULATION OF T LYMPHOCYTES” (Fate Therapeutics, Inc., priority 2015, published 2019)
